Laboratory results from PubChem BioAssay AID1918991 (Molecular Pharmacology Branch, DTP, NCI, 2023).

System: 186277-243-T-J2-PDC complex spheroid growth
Assay: Anticancer human tumor 186277-243-T-J2-PDC patient-derived colon adenocarcinoma cell line growth inhibition [AhR]
Details: for IC50: curve of first compound; for viability, T/C: stronger effect = lower value
How it was run: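 Agents were dosed in half-log steps down from roughly clinical Cmax, or from 10 microM where Cmax was unknown, alone and with AhR antagonists. Read-out: percent test/control growth of tumor spheroids containing HUVEC and MSC stromal cells.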

[1] = second compound 0.1 µM, first compound 0.000949 µM
[2] = second compound 0.1 µM, first compound 0.003 µM
[3] = second compound 0.1 µM, first compound 0.00949 µM
[4] = second compound 0.1 µM, first compound 0.03 µM
[5] = second compound 0.1 µM, first compound 0.0949 µM
[6] = second compound 0.1 µM, first compound 0.3 µM
[7] = second compound 0.316 µM, first compound 0.000949 µM
[8] = second compound 0.316 µM, first compound 0.003 µM
[9] = second compound 0.316 µM, first compound 0.00949 µM
[10] = second compound 0.316 µM, first compound 0.03 µM
[11] = second compound 0.316 µM, first compound 0.0949 µM
[12] = second compound 0.316 µM, first compound 0.3 µM
[13] = second compound 1 µM, first compound 0.000949 µM
[14] = second compound 1 µM, first compound 0.003 µM
[15] = second compound 1 µM, first compound 0.00949 µM
[16] = second compound 1 µM, first compound 0.03 µM
[17] = second compound 1 µM, first compound 0.0949 µM
[18] = second compound 1 µM, first compound 0.3 µM
[19] = second compound 3.16 µM, first compound 0.000949 µM
[20] = second compound 3.16 µM, first compound 0.003 µM
[21] = second compound 3.16 µM, first compound 0.00949 µM
[22] = second compound 3.16 µM, first compound 0.03 µM
[23] = second compound 3.16 µM, first compound 0.0949 µM
[24] = second compound 3.16 µM, first compound 0.3 µM
[25] = second compound 10 µM, first compound 0.000949 µM
[26] = second compound 10 µM, first compound 0.003 µM
[27] = second compound 10 µM, first compound 0.00949 µM
[28] = second compound 10 µM, first compound 0.03 µM
[29] = second compound 10 µM, first compound 0.0949 µM
[30] = second compound 10 µM, first compound 0.3 µM
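Also: spheroids exposed to compounds for seven days before the viability read.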
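For viability, T/C in this document: luminescent signal used as a stand-in for viable cell amount; 100% = DMSO vehicle control wells.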

CC(C)CC(NC(=O)C(Cc1ccccc1)NC(=O)c1cnccn1)B(O)O (stereo not given) + Cc1ccccc1N=Nc1ccc(NC(=O)c2ccnn2C)c(C)c1
IC50 (second compound 0.1 µM): 0.0177 µM
IC50 (second compound 0.316 µM): 0.0168 µM
IC50 (second compound 1 µM): 0.0162 µM
IC50 (second compound 3.16 µM): 0.0159 µM
IC50 (second compound 10 µM): 0.0167 µM
viability, T/C [1]: 101%
viability, T/C [2]: 108%
viability, T/C [3]: 109%
viability, T/C [4]: 2.71%
viability, T/C [5]: 1.36%
viability, T/C [6]: 0.12%
viability, T/C [7]: 104%
viability, T/C [8]: 118%
viability, T/C [9]: 97.3%
viability, T/C [10]: 1.86%
viability, T/C [11]: 0.39%
viability, T/C [12]: 0.12%
viability, T/C [13]: 99.8%
viability, T/C [14]: 98.2%
viability, T/C [15]: 91.5%
viability, T/C [16]: 1.95%
viability, T/C [17]: 1.08%
viability, T/C [18]: 0.12%
viability, T/C [19]: 104%
viability, T/C [20]: 95.4%
viability, T/C [21]: 89.1%
viability, T/C [22]: 1.92%
viability, T/C [23]: 0.77%
viability, T/C [24]: 0.14%
viability, T/C [25]: 96%
viability, T/C [26]: 90.1%
viability, T/C [27]: 98.6%
viability, T/C [28]: 3.12%
viability, T/C [29]: 0.43%
viability, T/C [30]: 0.21%

CC(C)CC(NC(=O)C(Cc1ccccc1)NC(=O)c1cnccn1)B(O)O (stereo not given) + CC(CO)NC(=O)c1cc(-c2ccc(Cl)cc2)nn(-c2cnn(C)c2)c1=O
IC50 (second compound 0.1 µM): 0.00595 µM
IC50 (second compound 0.316 µM): 0.0059 µM
IC50 (second compound 1 µM): 0.00606 µM
IC50 (second compound 3.16 µM): 0.00587 µM
IC50 (second compound 10 µM): 0.00537 µM
viability, T/C [1]: 117%
viability, T/C [2]: 120%
viability, T/C [3]: 3.22%
viability, T/C [4]: 0.06%
viability, T/C [5]: 0.07%
viability, T/C [6]: 0.11%
viability, T/C [7]: 121%
viability, T/C [8]: 117%
viability, T/C [9]: 3.12%
viability, T/C [10]: 0.03%
viability, T/C [11]: 0.05%
viability, T/C [12]: 0.11%
viability, T/C [13]: 110%
viability, T/C [14]: 132%
viability, T/C [15]: 4.62%
viability, T/C [16]: 0.06%
viability, T/C [17]: 0.04%
viability, T/C [18]: 0.11%
viability, T/C [19]: 114%
viability, T/C [20]: 118%
viability, T/C [21]: 2.71%
viability, T/C [22]: 0.06%
viability, T/C [23]: 0.05%
viability, T/C [24]: 0.12%
viability, T/C [25]: 96.3%
viability, T/C [26]: 100%
viability, T/C [27]: 2.68%
viability, T/C [28]: 0.15%
viability, T/C [29]: 0.15%
viability, T/C [30]: 0.23%

O=C(c1cc(Cc2n[nH]c(=O)c3ccccc23)ccc1F)N1CCN(C(=O)C2CC2)CC1 + CC(CO)NC(=O)c1cc(-c2ccc(Cl)cc2)nn(-c2cnn(C)c2)c1=O
IC50 (second compound 0.1 µM): 6.18 µM
IC50 (second compound 0.316 µM): 6.46 µM
IC50 (second compound 1 µM): 8.51 µM
IC50 (second compound 3.16 µM): 7.34 µM
IC50 (second compound 10 µM): 4.64 µM
viability, T/C (second compound 0.1 µM, first compound 0.0316 µM): 99.2%
viability, T/C (second compound 0.1 µM, first compound 0.1 µM): 108%
viability, T/C (second compound 0.1 µM, first compound 0.316 µM): 102%
viability, T/C (second compound 0.1 µM, first compound 1 µM): 90.3%
viability, T/C (second compound 0.1 µM, first compound 3.16 µM): 69.9%
viability, T/C (second compound 0.1 µM, first compound 10 µM): 36.1%
viability, T/C (second compound 0.316 µM, first compound 0.0316 µM): 96.3%
viability, T/C (second compound 0.316 µM, first compound 0.1 µM): 97.2%
viability, T/C (second compound 0.316 µM, first compound 0.316 µM): 100%
viability, T/C (second compound 0.316 µM, first compound 1 µM): 88.5%
viability, T/C (second compound 0.316 µM, first compound 3.16 µM): 74.9%
viability, T/C (second compound 0.316 µM, first compound 10 µM): 35.1%
viability, T/C (second compound 1 µM, first compound 0.0316 µM): 104%
viability, T/C (second compound 1 µM, first compound 0.1 µM): 95.3%
viability, T/C (second compound 1 µM, first compound 0.316 µM): 98%
viability, T/C (second compound 1 µM, first compound 1 µM): 93.7%
viability, T/C (second compound 1 µM, first compound 3.16 µM): 71.6%
viability, T/C (second compound 1 µM, first compound 10 µM): 46.5%
viability, T/C (second compound 3.16 µM, first compound 0.0316 µM): 98.1%
viability, T/C (second compound 3.16 µM, first compound 0.1 µM): 93.2%
viability, T/C (second compound 3.16 µM, first compound 0.316 µM): 87.9%
viability, T/C (second compound 3.16 µM, first compound 1 µM): 90.9%
viability, T/C (second compound 3.16 µM, first compound 3.16 µM): 71.9%
viability, T/C (second compound 3.16 µM, first compound 10 µM): 41.7%
viability, T/C (second compound 10 µM, first compound 0.0316 µM): 80%
viability, T/C (second compound 10 µM, first compound 0.1 µM): 86.3%
viability, T/C (second compound 10 µM, first compound 0.316 µM): 88.5%
viability, T/C (second compound 10 µM, first compound 1 µM): 69.2%
viability, T/C (second compound 10 µM, first compound 3.16 µM): 58.4%
viability, T/C (second compound 10 µM, first compound 10 µM): 36.5%
